From paper PMC8605023 (Nature Communications, 2021)
Peptide text beside a SMILES is read from it.

Legend:
Experiment in all cases: biochemical
Format in all cases: binding
MAP1LC3C = target: T1, MAP1LC3C (Homo sapiens, UniProt Q9BXW4)
T1 construct: His-GST (cleaved yes); made in house; host or cells: E. coli BL21-Gold(DE3)

USP7 = target: T2, USP7 (Homo sapiens, UniProt Q93009)
T2 construct: His-GST (cleaved yes); made in house; host or cells: E. coli BL21-Gold(DE3)

NTF2 domain of G3BP1 = target: T3, NTF2 domain of G3BP1 (Homo sapiens, UniProt Q13283)
T3 construct: made in house; host or cells: E. coli BL21-Gold(DE3)
T3 sequence (Q13283 11-133 limits assumed): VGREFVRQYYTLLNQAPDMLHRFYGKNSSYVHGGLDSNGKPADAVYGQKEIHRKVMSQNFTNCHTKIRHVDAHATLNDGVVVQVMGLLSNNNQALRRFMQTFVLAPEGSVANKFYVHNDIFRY

NTF2 domain of G3BP2 = target: T4, NTF2 domain of G3BP2 (Homo sapiens, UniProt Q9UN86)
T4 construct: made in house; host or cells: E. coli BL21-Gold(DE3)
T4 sequence (Q9UN86 11-133 limits assumed): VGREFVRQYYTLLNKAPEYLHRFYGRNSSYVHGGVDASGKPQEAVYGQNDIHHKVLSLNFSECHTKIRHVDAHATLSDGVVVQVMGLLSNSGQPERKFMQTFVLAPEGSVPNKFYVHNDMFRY

AP2M1 = target: T5, AP2M1 (Homo sapiens, UniProt Q96CW1)
T5 construct: His-GST (cleaved yes); made in house; host or cells: E. coli BL21-Gold(DE3)
T5 sequence (Q96CW1 160-435 limits assumed): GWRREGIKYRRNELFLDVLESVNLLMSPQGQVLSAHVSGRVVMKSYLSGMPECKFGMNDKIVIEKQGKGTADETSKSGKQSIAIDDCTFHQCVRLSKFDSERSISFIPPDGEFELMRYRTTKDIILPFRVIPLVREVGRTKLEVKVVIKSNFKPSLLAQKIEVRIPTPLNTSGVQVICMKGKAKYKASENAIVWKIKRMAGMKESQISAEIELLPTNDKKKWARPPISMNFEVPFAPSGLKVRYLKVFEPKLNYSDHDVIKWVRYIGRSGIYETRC

T1 sequence (Q9BXW4 1-126 limits assumed): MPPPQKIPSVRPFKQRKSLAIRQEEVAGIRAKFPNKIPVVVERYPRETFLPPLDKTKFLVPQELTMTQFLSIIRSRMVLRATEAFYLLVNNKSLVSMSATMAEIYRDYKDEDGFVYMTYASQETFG
T2 sequence (Q93009 63-205 limits assumed): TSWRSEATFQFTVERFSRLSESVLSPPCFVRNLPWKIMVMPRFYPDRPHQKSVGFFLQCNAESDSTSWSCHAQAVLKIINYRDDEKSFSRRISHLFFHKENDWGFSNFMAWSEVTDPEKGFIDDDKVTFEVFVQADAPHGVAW

SMILES | IC50 (NTF2 domain of G3BP1) | IC50 (NTF2 domain of G3BP2) | Ki (NTF2 domain of G3BP1) | Kd (NTF2 domain of G3BP2) | other results
CC(C)C[C@H](NC(=O)[C@@H](NC(=O)[C@H](CCC(=O)O)NC(=O)[C@H](Cc1ccccc1)NC(=O)[C@H](CO)NC(=O)[C@H](CC(N)=O)NC(=O)[C@H](CO)NC(=O)[C@@H](NC(=O)[C@H](CC(=O)O)NC(=O)[C@@H](N)C(C)C)[C@@H](C)O)C(C)C)C(=O)N[C@@H](C)C(=O)N[C@H](C(=O)N[C@@H](CCC(=O)O)C(=O)N[C@@H](CC(=O)O)C(=O)N[C@H](C(=O)N[C@@H](CCC(N)=O)C(=O)N[C@@H](Cc1ccc(O)cc1)C(=O)O)[C@@H](C)O)C(C)C [NSP3 1996-2011 Sars-CoV] |  |  |  |  | IC50 (MAP1LC3C): 200 µM; Kd (MAP1LC3C): 28 ± 1 µM; Ki (MAP1LC3C): 28 µM; IC50 (USP7): 210 µM; Kd (USP7): 29 ± 2 µM; Ki (USP7): 29 µM
CC(=O)N[C@@H](CC(C)C)C(=O)N[C@H](C(=O)N[C@@H](Cc1ccccc1)C(=O)NCC(=O)N[C@@H](CC(=O)O)C(=O)N[C@@H](Cc1ccccc1)C(=O)N[C@@H](CC(=O)O)C(=O)N[C@@H](CCC(=O)O)C(=O)N[C@@H](Cc1c[nH]cn1)C(=O)N[C@@H](CCC(=O)O)C(=O)N[C@H](C(=O)N[C@@H](CC(=O)O)C(=O)N[C@@H](Cc1ccc(O)cc1)C(N)=O)C(C)C)[C@@H](C)O [NSP3 1785-1796 SFV] | 23 µM | 13 µM |  |  | 
CC(=O)N[C@@H](C)C(=O)N1CCC[C@H]1C(=O)N[C@@H](CCCNC(=N)N)C(=O)N[C@@H](C)C(=O)N[C@H](C(=O)N[C@H](C(=O)N[C@@H](Cc1ccccc1)C(=O)NCC(=O)N[C@@H](CC(=O)O)C(=O)N[C@@H](CC(N)=O)C(=O)N[C@@H](CC(N)=O)C(=O)N[C@@H](CC(=O)O)C(=O)N[C@@H](CC(N)=O)C(=O)N[C@@H](CC(N)=O)C(=O)N[C@H](C(=O)N[C@@H](Cc1ccc(O)cc1)C(N)=O)[C@@H](C)O)[C@@H](C)O)C(C)C [N 6-20 Mers1] (Ac-APRAVTFGDNNDNNTY-NH2) |  |  | 51 µM | 26 µM | Kd (NTF2 domain of G3BP1): 51 ± 2 µM; Ki (NTF2 domain of G3BP2): 26 µM
CC[C@H](C)[C@H](NC(=O)[C@H](CC(=O)O)NC(=O)[C@H](CO)NC(=O)[C@@H](NC(=O)[C@@H](NC(=O)CNC(C)=O)C(C)C)C(C)C)C(=O)N[C@@H](CC(=O)O)C(=O)N[C@@H](Cc1ccc(O)cc1)C(=O)N[C@H](C(=O)N1CCC[C@H]1C(=O)N[C@@H](CC(C)C)C(=O)N[C@@H](CCCCN)C(=O)N[C@@H](CO)C(=O)N[C@@H](C)C(=O)N[C@H](C(N)=O)[C@@H](C)O)C(C)C |  |  |  |  | Kd (AP2M1): 1.6 ± 0.2 µM
CC[C@H](C)[C@H](NC(=O)[C@@H]1CCCN1C(=O)[C@@H]1CCCN1C(=O)[C@@H](NC(=O)[C@@H]1CCCN1C(C)=O)C(C)C)C(=O)N[C@@H](CCC(=O)O)C(=O)N[C@@H](Cc1ccccc1)C(=O)NCC(=O)N[C@H](C(=O)N[C@@H](CO)C(=O)N1CCC[C@H]1C(=O)N[C@@H](CCCCN)C(=O)N[C@@H](CC(=O)O)C(=O)N[C@@H](CO)C(=O)N[C@@H](CC(=O)O)C(=O)N[C@@H](Cc1ccc(O)cc1)C(N)=O)C(C)C [PRRC2B 1780-1794 Human] (Ac-PVPPIEFGVSPKDSDY-NH2) | 33 µM | 53 µM | 10 µM | 10 µM | 
CC(=O)N[C@@H](CCC(=O)O)C(=O)N[C@@H](CO)C(=O)N[C@@H](CC(C)C)C(=O)N1CCC[C@H]1C(=O)N[C@@H](Cc1ccccc1)C(=O)N[C@@H](CO)C(=O)N[C@@H](Cc1ccccc1)C(=O)NCC(=O)N[C@H](C(=O)N[C@@H](CC(C)C)C(=O)N[C@@H](CO)C(=O)N[C@@H](CO)C(=O)N[C@@H](Cc1c[nH]c2ccccc12)C(=O)N[C@@H](CCC(=O)O)C(=O)N[C@@H](CC(C)C)C(=O)N[C@@H](CCC(=O)O)C(=O)O)[C@@H](C)O [DDIT3 4-19 Human] (Ac-ESLPFSFGTLSSWELE-OH) | 44 µM |  | 14 µM | 14 µM | 
CC(=O)N1CCC[C@H]1C(=O)N[C@@H](CO)C(=O)N[C@@H](CCCCN)C(=O)N[C@@H](CC(C)C)C(=O)N1CCC[C@H]1C(=O)N[C@H](C(=O)N[C@@H](Cc1ccccc1)C(=O)NCC(=O)N[C@@H](C)C(=O)N1CCC[C@H]1C(=O)N[C@@H](CCC(=O)O)C(=O)N[C@@H](CCC(N)=O)C(=O)N[C@@H](CC(C)C)C(=O)N[C@H](C(=O)N[C@@H](CC(=O)O)C(=O)N[C@@H](Cc1ccc(O)cc1)C(N)=O)C(C)C)[C@@H](C)O [TRIM25 400-414 Human] (Ac-PSKLPTFGAPEQLVDY-NH2) |  | 53 µM | 46 µM | 46 µM | 
CC[C@H](C)[C@H](NC(=O)[C@H](CCCNC(=N)N)NC(=O)[C@@H]1CCCN1C(=O)[C@H](C)NC(C)=O)C(=O)N[C@H](C(=O)N[C@@H](Cc1ccccc1)C(=O)NCC(=O)NCC(=O)N1CCC[C@H]1C(=O)N[C@H](C(=O)N[C@@H](CC(=O)O)C(=O)N[C@@H](CO)C(=O)N[C@H](C(=O)N[C@@H](CC(=O)O)C(=O)N[C@@H](CC(N)=O)C(=O)N[C@@H](Cc1ccc(O)cc1)C(N)=O)[C@@H](C)O)[C@@H](C)O)[C@@H](C)O [N 13-27 Sars-CoV] (Ac-APRITFGGPTDSTDNY-NH2) | 10 µM |  |  |  | 
CC[C@H](C)[C@H](NC(=O)[C@H](CCCNC(=N)N)NC(=O)[C@@H]1CCCN1C(=O)[C@H](C)NC(C)=O)C(=O)N[C@H](C(=O)N[C@@H](Cc1ccccc1)C(=O)NCC(=O)NCC(=O)N1CCC[C@H]1C(=O)N[C@@H](CO)C(=O)N[C@@H](CC(=O)O)C(=O)N[C@@H](CO)C(=O)N[C@H](C(=O)NCC(=O)N[C@@H](CO)C(=O)N[C@@H](Cc1ccc(O)cc1)C(N)=O)[C@@H](C)O)[C@@H](C)O [N 12-26 Sars-CoV2] (Ac-APRITFGGPSDSTGSY-NH2) | 17 µM | 10 µM | 4 µM |  | Kd (NTF2 domain of G3BP1): 4 µM
CC(=O)N[C@@H](CC(N)=O)C(=O)N[C@@H](CC(C)C)C(=O)N[C@@H](CCC(N)=O)C(=O)N[C@@H](Cc1ccccc1)C(=O)NCC(=O)N[C@@H](C)C(=O)N[C@@H](CC(C)C)C(=O)N[C@@H](CCC(N)=O)C(=O)N[C@@H](Cc1ccccc1)C(=O)NCC(=O)N[C@@H](CO)C(=O)N[C@@H](CCC(=O)O)C(=O)N1CCC[C@H]1C(=O)N[C@H](C(=O)N[C@@H](Cc1ccc(O)cc1)C(=O)O)C(C)C [UBAP2L 515-528 Human] (Ac-NLQFGALQFGSEPVY-OH) |  |  | 34 µM | 34 µM | 
CC(=O)N[C@@H](CCC(N)=O)C(=O)NCC(=O)N[C@@H](CC(C)C)C(=O)N1CCC[C@H]1C(=O)N[C@@H](CC(C)C)C(=O)N[C@@H](CCC(=O)O)C(=O)N[C@@H](Cc1ccccc1)C(=O)NCC(=O)N[C@@H](C)C(=O)N[C@@H](CO)C(=O)N[C@@H](C)C(=O)N[C@@H](CCC(=O)O)C(=O)N[C@H](C(=O)N[C@H](C(=O)N[C@@H](CCCNC(=N)N)C(=O)N[C@@H](Cc1ccc(O)cc1)C(N)=O)C(C)C)[C@@H](C)O [NSP3 958-972 Sars-CoV] |  |  | 119 µM | 47 ± 2 µM | Kd (NTF2 domain of G3BP1): 119 ± 5 µM; Ki (NTF2 domain of G3BP2): 47 µM
CC(=O)N[C@@H](CCC(N)=O)C(=O)NCC(=O)N[C@@H](CCCCN)C(=O)N1CCC[C@H]1C(=O)N[C@@H](CC(C)C)C(=O)N[C@@H](CCC(=O)O)C(=O)N[C@@H](Cc1ccccc1)C(=O)NCC(=O)N[C@@H](C)C(=O)N[C@H](C(=O)N[C@@H](CO)C(=O)N[C@@H](C)C(=O)N[C@@H](C)C(=O)N[C@@H](CC(C)C)C(=O)N[C@@H](CCC(N)=O)C(=O)N[C@@H](Cc1ccc(O)cc1)C(N)=O)[C@@H](C)O [NSP3 956-971 Sars-CoV2] |  |  |  | 35 ± 13 µM | Ki (NTF2 domain of G3BP2): 35 µM
CC[C@H](C)[C@H](NC(=O)CNC(=O)[C@H](CO)NC(=O)[C@H](C)NC(=O)[C@H](CC(C)C)NC(=O)[C@H](C)NC(=O)[C@H](CC(=O)O)NC(C)=O)C(=O)N[C@H](C(=O)N[C@@H](Cc1ccccc1)C(=O)NCC(=O)N[C@@H](CC(=O)O)C(=O)N[C@@H](Cc1ccccc1)C(=O)N[C@@H](CC(=O)O)C(=O)N[C@@H](CC(=O)O)C(=O)N[C@@H](Cc1ccc(O)cc1)C(N)=O)[C@@H](C)O [NSP3 1796-1809 SFV] |  | 11 µM |  |  | 
CC[C@H](C)[C@H](NC(=O)[C@H](Cc1ccccc1)NC(=O)[C@H](CC(N)=O)NC(=O)[C@H](Cc1ccc(O)cc1)NC(=O)[C@@H]1CCCN1C(=O)CNC(=O)[C@H](CCC(N)=O)NC(=O)[C@H](CCSC)NC(=O)[C@H](CCC(N)=O)NC(=O)[C@H](C)NC(C)=O)C(=O)N[C@@H](CCC(N)=O)C(=O)N[C@@H](CC(=O)O)C(=O)N[C@@H](CO)C(=O)N[C@@H](CCSC)C(=O)N[C@@H](CC(C)C)C(=O)N[C@@H](CC(=O)O)C(N)=O [CAPRIN1 364-379 Human] (Ac-AQMQGPYNFIQDSMLD-NH2) | 46 µM |  |  | 174 µM | 
CC[C@H](C)[C@H](NC(=O)CNC(=O)[C@H](CO)NC(=O)[C@H](C)NC(=O)[C@H](CC(C)C)NC(=O)[C@H](C)NC(=O)[C@H](CC(=O)O)NC(=O)[C@@H](NC(=O)[C@H](CCC(=O)O)NC(=O)[C@H](Cc1c[nH]cn1)NC(=O)[C@H](CCC(=O)O)NC(=O)[C@H](CC(=O)O)NC(=O)[C@H](Cc1ccccc1)NC(=O)[C@H](CC(=O)O)NC(=O)CNC(=O)[C@H](Cc1ccccc1)NC(=O)[C@@H](NC(=O)[C@H](CC(C)C)NC(C)=O)[C@@H](C)O)C(C)C)C(=O)N[C@H](C(=O)N[C@@H](Cc1ccccc1)C(=O)NCC(=O)N[C@@H](CC(=O)O)C(=O)N[C@@H](Cc1ccccc1)C(=O)N[C@@H](CC(=O)O)C(=O)N[C@@H](CC(=O)O)C(=O)N[C@@H](Cc1ccc(O)cc1)C(N)=O)[C@@H](C)O [NSP3 1785-1809 SFV] |  |  | 0.3 µM |  | Kd (NTF2 domain of G3BP1): 0.3 µM; binds stronger than the SARS-CoV-2 N peptide to both G3BP1 and G3BP2 (fold) (NTF2 domain of G3BP1): approximately 10 fold; Ki (NTF2 domain of G3BP2): 0.15 µM
